Where two headings read alike, the source gives them in different places.
Columns and labels:
[1] = acute toxicity by oral administration (LD50), rats; conditions: rat, in vivo
From the text: Safety of the effective components of the composition of the present invention will be given hereunder. For example, acute toxicity by oral administration of sodium o-nitrophenol, sodium p-nitrophenol and sodium 5-nitroguaiacol is as follows:
Acute toxicity by oral administration is low. In addition, it has been also confirmed that those compounds are without problem in terms of toxicity by chronic toxicity test, teratogenic test and carcinogenic test. Further, as mentioned above, those compounds have been used as plant growth regulators and hair growth promoters throughout the world. In the past, they were used as injections but there was no example of adverse affection on the animals who took the plants to which they were applied, on the persons who were injected therewith and on the persons using the hair growth promoters containing them. Thus, their safety in humans has been practically confirmed. As mentioned above, o-nitrophenol, p-nitrophenol, 5-nitroguaiacol and salts thereof which are active ingredient(s) of the methods for growth promoting of the present invention have high safety.

Tilapia fry = format: in vivo; conditions: feed with 10 ppm of a single salt; for Body Weight Increase per 1 Tilapia after 4 Weeks: control 3.78; for Body Weight Increase per 1 Tilapia after 8 Weeks: control 10.10
Method: Tilapia fry with average body weight 2 g were used. Commercial feed for tilapia was given twice a day (morning and evening) in an amount of 5 to 8% of the body weight. The control group was given the commercial feed only, while the treated groups were given the commercial feed with the addition of the test compound(s) o-nitrophenol, p-nitrophenol and/or 5-nitroguaiacol, in the amount(s) shown in Table 3. Body weights were measured after 4 and 8 weeks.

[2] = female rats, read-out: LD50 for rats (female)
[3] = male rats, read-out: LD50 for rats (male)

Structure (SMILES)	LD50 [1, 2] [mg/kg]	LD50 [1, 3] [mg/kg]	Body Weight Increase per 1 Tilapia after 4 Weeks (Tilapia fry) [g]	Body Weight Increase per 1 Tilapia after 4 Weeks, relative to control (100) (Tilapia fry)	Body Weight Increase per 1 Tilapia after 8 Weeks (Tilapia fry) [g]	Body Weight Increase per 1 Tilapia after 8 Weeks, relative to control (100) (Tilapia fry)
COc1ccc([N+](=O)[O-])cc1O [Sodium 5-nitroguaiacol, sodium 5-nitroguaiacol]	1270	3100	4.08	108	11.09	110
O=[N+]([O-])c1ccccc1O.[Na] [Sodium o-nitrophenol, sodium o-nitrophenol]	1460	2050	3.97	105	10.71	106
O=[N+]([O-])c1ccc(O)cc1.[Na] [Sodium p-nitrophenol, sodium p-nitrophenol]	482	1250	4.04	107	10.61	105
